Consider one compound from patent publication US20130156869A1, “PHARMACEUTICAL COMPOSITION FOR THE TREATMENT OF ALZHEIMER'S DISEASE, METHOD FOR PRODUCING SAME AND USE THEREOF” (Funddacao Arnaldo Vieira de Carvalho, priority 2010, published 2013).

The assay relates to patients diagnosed with Alzheimer's disease. Nature of the assay: Mini Mental State Examination (MMSE) performed quarterly in a blinded, placebo-controlled study of lithium microdoses. The class given is in vivo, human. The source says:
Patients clinically diagnosed with Alzheimer's disease by the DSM-IV and NINCDS-ADRDA criteria, and under treatment. The patients were selected by the Mini Mental State Examination (MMSE), which is a questionnaire asked to the patient at each visit, which has a maximum score of 30 points. The Mini-Mental State Examination (MMSE) was designed to be a clinical practice assessment of change in the cognitive status in geriatric patients (Folstein et al, 1975). It examines temporal and spatial orientation, short-term memory (or immediate attention) and recall, calculation, apraxia, and language and visual-spatial skills. It can be used as a screening test for cognitive impairment or as a cognitive assessment of bedside. The Portuguese version of the MMSE (Bertolucci et al, 1994) was considered reliable and adequate for screening and monitoring of ambulatory elderly (Lawrence et al, 2008).
The MMSE includes 11 items, divided into 2 sections. The first requires verbal answers to questions of orientation, memory and attention, the second to questions of reading and writing skills, and it evaluates the skills of appointment, follow verbal and written commands, writing a sentence and copying a drawing (polygons) (Folstein et al, 1975). The cutoff point most often used to indicate a cognitive impairment that deserves further investigation is 24. […] The cutoff point is often adjusted for the education level because a single cut can lose cases among persons with more education, and generate false positives among those with less education. […] Some Brazilian authors studied the measuring characteristics of the scale. Thus, to evaluate the cognitive performance of a population seeking medical screening service of a hospital, Bertolucci applied the MMSE in 530 individuals. We found distinct cutoff points for the diagnosis of cognitive decline, according to the level of education: 13 for illiterates, 18 for low and middle levels of education and 26 for high level of education, with a sensitivity of 82.4%, 75.6% and 80%, and specificity of 97.5%, 96.6% and 95.6%, respectively (Bertolucci et al, 1994). The MMSE was the parameter chosen for inclusion and monitoring of patients of the search for being a test performed on all patients in this clinic and for being a cognitive assessment scale that is practical and useful in the investigation of patients with dementia risk, as in the case of elderly (Almeida, 1998), and it is prescriptive by use and the criteria for dispensing medications adopted by the Ministry of Health. The fact that all medical professionals involved in the evaluation of patients are fully trained and qualified in applying the MMSE was also relevant for this choice. The inclusion of a second test could generate a methodological error that is not measurable. The patients were diagnosed by a neurologist, psychiatrist or geriatrician as suffering from dementia due to Alzheimer's disease, according to the criteria previously mentioned. Patients must present MMSE score equal to or greater than 12 for patients over 4 years of education and greater than or equal to 9 for patients with up to 4 years of education. (Almeida, 1998).
In this preferred embodiment of the invention, the drug tested was the lithium gluconate in a dose of 8.140 mg in 2 mL of solution, which corresponds to 0.28 mg or 0.04 mMol of the metal administered sublingually. Two presentations were used: one containing the lithium gluconate and other containing placebo (anhydrous glucose and purified water). Both presentations were differentiated by a label existing in a group, placebo or lithium, unknown by researchers and by the executors of the MMSE. The patients were selected in a blinded fashion in both groups, with and without stamp by attendance order, being the first with the seal, alternating until the last patient. Formulations were also evaluated with lithium carbonate, respecting the dose of 0.28 mg of metal per dose. […]

In the case of `O=C([O-])[C@H](O)[C@@H](O)[C@H](O)[C@H](O)CO.[Li+]` [Lithium, lithium gluconate], the “MMSE scores vs control by age group” value (61-70 years, F1,62=8.487, p=0.0053, Bonferroni test not significant) is on record as “significant differences in the treatment factor”; the “MMSE scores vs control by age group” value (71-80 years, treatment factor F1,302=29.6, p<0.0001) was “stable maintenance of these values”; the “MMSE scores vs control by age group” value (>80 years, treatment factor F1,225=19.53, p<0.0001) is “better scores on the MMSE compared to control subjects”. Also, for the setting “all participants, six quarters, treatment factor F1,614=65.81, p<0.0001 vs control”, the “Evolution of MMSE scores in quarterly reviews” value is reported as “maintenance of these scores”. The MMSE score by setting is: (first quarter of treatment, 0.28 mg lithium metal per dose, sublingual, P<0.01 vs control) 20.57±0.66; (quarter 0, immediately before inclusion in the protocol (baseline), n=56, P=0.17 vs control) 19±0.63; (quarter 5 (end of study), 0.28 mg lithium metal per dose, sublingual, P<0.001 vs control) 20±0.9. Also, the “Influence of gender on MMSE scores in the treated group” value (treated men vs treated women, p=0.4448 and p=0.9786) is “no significant differences in treatment and time factors”.
